Reference: US20060148055A1, “Oxidised fragments of apolioprotein B and their uses” (priority 1997, published 2006)
No end group written: not given here. MDA = malondialdehyde

Test system: U937 monocytes
Experiment: Inhibition of oxidised LDL uptake by peptides in monocytes in cell culture (DiI-labelled LDL fluorescence)
Format: cell-based
Details: versus oxidised LDL alone, ANOVA followed by Tukey post test
Method: An experiment was performed to determine in cell culture if uptake of oxidised LDL by U937 monocytes could be inhibited by the peptides according to SEQ ID NOs:1-3, both in their native state and conjugated to MDA.
LDL (1 mg/ml) was labelled with 1,1′-dioctadecyl-3,3,3′,3′,-tetramethylindocarbocyanine perchlorate (DiI) (300 μg/mg LDL) by incubation overnight at 37° C. in the dark under nitrogen. Excess DiI was removed by desalting into PBS (0.01 M phosphate buffer, 0.137 M sodium chloride, pH 7.4) through a PD-10 column.
U937 monocytes were maintained in RPMI media supplemented with heat inactivated fetal calf serum (10%) (FCS) and penicillin/streptomycin (1%). Cells were ‘starved’ of lipids by culturing in RMPI supplemented with penicillin/streptomycin (1%) in the absence of serum, and plated at 1 million cells per well in 6 well plates, 4 hours before treatment with DiI labelled LDL. […] Non-starved cells were also plated at 1 million cells per well in 6 well plates, 4 hours before treatment with DiI labelled LDL. Starved and non-starved cells were treated with DiI labelled LDL (oxidized) (50 μg) in the presence or absence of excess unlabelled peptide (native or MDA-conjugated) (500 μg) as competitor. […] Fluorescence was read at Ex 520 nm, Em 590 nm using a Molecular Devices Gemini XS microplate fluorimeter. […]

Substance: RB1: peptide SEQ ID NO: 1 (ALQYKLEGTTR) MDA-conjugated (ALQYK(MDA)LEGTTR)
- inhibition of uptake of oxidised LDL by monocytes (in words): inhibition is statistically significant
- inhibition of uptake of oxidised LDL by monocytes (in words) (listed as peptide corresponding to SEQ ID NO:1 conjugated to MDA): inhibits uptake
